Earlier results in US20110182952A1, “DRUG DELIVERY FROM EMBOLIC AGENTS” (BIOCOMPATIBLES UK LIMITED, priority 2004, published 2011).

Conditions: uterine artery embolization for leiomyomata

In the case of `CCN(CC)CC(=O)Nc1c(C)cccc1C` [lidocaine], the “arterial spasm on intraarterial use” value is listed as “causes a large amount of spasm”.
